This is an account of results in patent US12558428B2, “Heterobifunctional compounds and their use in treating disease” (Halda Therapeutics OpCo, Inc., priority 2024, dated 2026).

Molecules are shown by their SMILES.

What all share (format): cell-based
Experiment [1] relates to T-Rex 293 cells lacking increased expression of estrogen receptor alpha protein. Kind of experiment: Cellular growth inhibition assay, T-Rex 293 cells, (−) doxycycline. Conditions: T-REx-293, 72 h, Table 7-A; T-Rex 293 cells without doxycycline (lacking increased ERα expression); 72 hours; CellTiter-Glo; read-out: (−) Dox GI50. The procedure, abridged:
(§1)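 ERα overexpression was switched on by 3 ng/mL doxycycline in a stably transfected T-Rex 293 clone, while uninduced cells served as the comparison line. Proliferation over 72 h of compound treatment was assessed by ATP luminescence, and GI50 values came from four-parameter curves.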

The subject of experiment [2] is MCF7 cells (ATCC #HTB-22). As to the kind of experiment: Cellular growth inhibition assay, MCF7 cells purchased from ATCC. The settings on record: Homo sapiens, MCF7, 144 h, Table 8-A; MCF7 cells purchased from ATCC; six days; CellTiter-Glo; read-out: GI50. The method in brief: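 MCF7 cells in RPMI 1640 with 10% FBS and 0.2 U/ml insulin, seeded at 1,500 cells/well (ATCC) or 225 cells/well (ECACC). Compounds added 24 h later, then 6 days at 37° C. Viability by CellTiter-Glo 2.0 luminescence. GI50 from four-parameter fit.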

The test system of experiment [3] is T-Rex 293 cells having increased expression of estrogen receptor alpha protein. Kind of experiment: Cellular growth inhibition assay, T-Rex 293 cells, (+) doxycycline. The settings on record: T-REx-293, 72 h, Table 7-A; T-Rex 293 cells with doxycycline (increased ERα expression); 72 hours; CellTiter-Glo; read-out: (+) Dox GI50. The procedure, abridged: as §1
A general note: In ATP-based viability assays light output follows the ATP content of the culture.

Usually GI50 stands for the concentration giving 50% growth inhibition. Consider `Cc1sc2c(c1C)C(c1ccc(N3CC4(CCN(CC5CCN(c6ccc([C@H]7c8ccc(O)cc8CC[C@H]7c7ccccc7)cc6)CC5)CC4)C3)cc1)=N[C@@H](C)c1nnc(C)n1-2` [III-11], for which the GI50 in experiment [1] was 50 to 500 nM; in experiment [2], 50 to 500 nM; in experiment [3] it was less than 50 nM.
Consider `Cc1sc2c(c1C)C(c1ccc(N3CC4(CCN(CC5CCN(c6ccc([C@@H]7c8ccc(O)cc8CC[C@@H]7c7ccccc7)cc6)CC5)CC4)C3)cc1)=N[C@@H](C)c1nnc(C)n1-2` [III-12], for which the GI50 in experiment [1] was 500 to 2500 nM; in experiment [2], 50 to 500 nM; in experiment [3], less than 50 nM.
`Cc1sc2c(c1C)C(c1ccc(CC3CC4(CCCN(c5ccc([C@H]6c7ccc(O)cc7CC[C@H]6c6ccccc6)cc5)C4)C3)cc1)=N[C@@H](C)c1nnc(C)n1-2` (stereo partly drawn) [III-13]: the GI50 in experiment [1] is greater than 2500 nM; in experiment [2], 500 to 2500 nM; in experiment [3], 500 to 2500 nM.
`Cc1sc2c(c1C)C(c1ccc(CC3CC4(CCN(c5ccc([C@@H]6c7ccc(O)cc7CC[C@@H]6c6ccccc6)cc5)CC4)C3)cc1)=N[C@@H](C)c1nnc(C)n1-2` [III-14]: the 50% growth inhibitory concentration (GI50) in experiment [1] was in the range of 500 to 2500 nM; in experiment [2], 500 to 2500 nM; in experiment [3], 50 to 500 nM.
`Cc1sc2c(c1C)C(c1ccc(CC3CC4(CCN(c5ccc([C@H]6c7ccc(O)cc7CC[C@H]6c6ccccc6)cc5)CC4)C3)cc1)=N[C@@H](C)c1nnc(C)n1-2` [III-15]: the concentration for 50% growth inhibition (GI50) in experiment [1], in experiment [2] and in experiment [3] was 500 to 2500 nM each time.
As for `Cc1sc2c(c1C)C(c1ccc(N3CCN(CCOc4ccc([C@@H]5c6ccc(O)cc6CC[C@@H]5c5ccccc5)cc4)CC3)cc1)=N[C@@H](C)c1nnc(C)n1-2` [III-16], the GI50 in experiment [1], in experiment [2] and in experiment [3] was 50 to 500 nM throughout.
As to `Cc1sc2c(c1C)C(c1ccc(N3CCN(CCOc4ccc([C@H]5c6ccc(O)cc6CC[C@H]5c5ccccc5)cc4)CC3)cc1)=N[C@@H](C)c1nnc(C)n1-2` [III-17], the GI50 in experiment [1], in experiment [2] and in experiment [3] was 500 to 2500 nM in each case.
In the case of `Cc1sc2c(c1C)C(c1ccc(C#CC3CC4(CCN(c5ccc([C@H]6c7ccc(O)cc7CC[C@H]6c6ccccc6)cc5)CC4)C3)cc1)=N[C@@H](C)c1nnc(C)n1-2` [III-18], the GI50 in experiment [1] is greater than 2500 nM; in experiment [2] it was 500 to 2500 nM; in experiment [3], greater than 2500 nM.
Regarding `Cc1sc2c(c1C)C(c1ccc(C#CC3CC4(CCN(c5ccc([C@@H]6c7ccc(O)cc7CC[C@@H]6c6ccccc6)cc5)CC4)C3)cc1)=N[C@H](Cc1ncco1)c1nnc(C)n1-2` [III-19], the concentration for 50% growth inhibition (GI50) in experiment [1], in experiment [2] and in experiment [3] was greater than 2500 nM throughout.
For the molecule `Cc1sc2c(c1C)C(c1ccc(C#CC3CC4(CCN(c5ccc([C@H]6c7ccc(O)cc7CC[C@H]6c6ccccc6)cc5)CC4)C3)cc1)=N[C@H](Cc1ncco1)c1nnc(C)n1-2` [III-20], the GI50 in experiment [1], in experiment [2] and in experiment [3] was greater than 2500 nM throughout.
On to `Cc1sc2c(c1C)C(c1ccc(C#CC3CC4(CCN(c5ccc([C@H]6c7ccc(O)cc7CC[C@H]6c6ccccc6)cc5)CC4)C3)cc1)=N[C@@H](Cc1ncco1)c1nnc(C)n1-2` [III-21], for which the GI50 in experiment [1] is greater than 2500 nM; in experiment [2] it was 500 to 2500 nM; in experiment [3] it was 500 to 2500 nM.
As to `Cc1sc2c(c1C)C(c1ccc(C3CCN(C[C@@H]4[C@H]5CN(c6ccc([C@H]7c8ccc(O)cc8CC[C@H]7c7ccccc7)cc6)C[C@@H]45)CC3)cc1)=N[C@@H](C)c1nnc(C)n1-2` [III-22], the concentration for 50% growth inhibition (GI50) in experiment [1] was 500 to 2500 nM; in experiment [2] it was 50 to 500 nM; in experiment [3] it was less than 50 nM.
Regarding `Cc1sc2c(c1C)C(c1ccc(N3CCN(C[C@@H]4[C@H]5CN(c6ccc([C@@H]7c8ccc(O)cc8CC[C@@H]7c7ccccc7)cc6)C[C@@H]45)CC3)cc1)=N[C@@H](C)c1nnc(C)n1-2` [III-23], the GI50 is greater than 2500 nM in experiment [1], 50 to 500 nM in experiment [2] and less than 50 nM in experiment [3].
Take `Cc1sc2c(c1C)C(c1ccc(N3CCC(O)(CN4CCC(c5ccc([C@H]6c7ccc(O)cc7CC[C@H]6c6ccccc6)cc5)CC4)CC3)cc1)=N[C@@H](C)c1nnc(C)n1-2` [III-24]: the values for the GI50 in experiment [1], in experiment [2] and in experiment [3] were 50 to 500 nM, 50 to 500 nM and less than 50 nM, respectively.
In the case of `Cc1sc2c(c1C)C(c1ccc(N3CCC(O)(CN4CCC(c5ccc([C@@H]6c7ccc(O)cc7CC[C@@H]6c6ccccc6)cc5)CC4)CC3)cc1)=N[C@@H](C)c1nnc(C)n1-2` [III-25], the 50% growth inhibitory concentration (GI50) in experiment [1] was 500 to 2500 nM; in experiment [2], less than 50 nM; in experiment [3] it was less than 50 nM.
